Results taken from US6924100B2, “Gene alteration in the gene for the Gβ3-subunit of the human G protein” (priority 1998, dated 2005).

How the values were obtained:
[1] = system: neutrophilic granulocytes; test: fMLP-stimulated chemotaxis of neutrophilic granulocytes; format: cell-based, human; conditions: granulocytes of carriers of the GNB3-825T allele, FIG. 5
Text: It is therefore used as a test system for measurement of chemotactic reactions of cells which is well known to one skilled in the art. The fMLP receptor, as is known, activates the pertussis toxin-sensitive G proteins. The statement that granulocytes of carriers of the GNB3-825T allele show intensified fMLP-stimulated chemotaxis is in agreement with the fact that chemotaxis of betagamma subunits is mediated.

[2] = system: males with penile dysfunction; test: Erection score and arterial blood flow after prostaglandin E1 injection into the corpus cavernosum; format: in vivo, human; conditions: for males with insufficient or absent erection / males with sufficient erection (scores 4 and 5): 10 micrograms, of 87 males
Experimental: When erectile dysfunction is present, prostaglandin E1 is injected into the corpus cavemosum for diagnostic clarification, but also possibly to begin long-term therapy. Prostaglandin E1 activates adenylcyclase, and the subsequent formation of cAMP relaxes smooth vascular muscle cells and thus induces an increased arterial blood flow and thus erection of the penis. The degree of the erection which occurs can be quantified via a point system (score 0-5). Here the scores 4 and 5 correspond to an erection which is sufficient for penetration, while scores<4 can be considered as insufficient.
In 87 males with penile dysfunction, 10 micrograms of prostaglandin E1 were administered with quantification of the erection score. Here the genotype distribution was as follows: Sufficient erection (scores 4 and 5): TT=3; TC=15; CC=16; (frequency of GNB3 825T allele: 30.9%). Insufficient or absent erection: TT=3; TC=16; CC=34; (frequency of the GNB3 825T allele: 20.8%).

[3] = system: beta-adrenergic receptors; test: Cardiac output after intravenous beta-adrenoceptor blocker; format: in vivo, human; conditions: average
[4] = system: coronary vessels; test: Coronary blood flow change after intracoronary BHT 933; format: in vivo, human; conditions: carriers of the GNB3-825T allele, with or without CHD, FIG. 8
Text: An alpha2 adrenergic agonist (BHT 933) was applied intracoronary in the probands; it leads to contraction of coronary vessels. This effect was quantified via the flow change through these sections of the vessels. […] This means that in carriers of the GNB3-825T allele the intensification of the action of these pharmaceuticals can be predicted.

[5] = target: T1, m2-muscarinergic receptor (Homo sapiens, UniProt P08172); test: G protein stimulation by carbachol in Sf9 cells expressing m2-muscarinergic receptor, Galphai3, Ggamma5 and Gβ3 or Gβ3s; format: cell-based; conditions: in the presence of Gβ3 (so in the source), FIG. 2
T1 sequence (P08172 1-466): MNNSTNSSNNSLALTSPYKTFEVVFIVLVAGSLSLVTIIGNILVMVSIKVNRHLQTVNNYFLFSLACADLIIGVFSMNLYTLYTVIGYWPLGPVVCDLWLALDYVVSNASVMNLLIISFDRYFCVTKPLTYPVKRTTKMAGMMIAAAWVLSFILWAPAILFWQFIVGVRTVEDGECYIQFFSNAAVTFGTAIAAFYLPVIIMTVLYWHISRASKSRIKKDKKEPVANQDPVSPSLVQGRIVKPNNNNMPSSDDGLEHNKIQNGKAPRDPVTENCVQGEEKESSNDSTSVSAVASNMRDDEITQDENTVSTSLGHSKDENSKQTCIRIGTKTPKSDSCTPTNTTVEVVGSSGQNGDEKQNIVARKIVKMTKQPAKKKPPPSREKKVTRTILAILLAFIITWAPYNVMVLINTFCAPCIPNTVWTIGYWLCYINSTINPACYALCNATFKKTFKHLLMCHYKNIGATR
Text: Here the m2-muscarinergic receptor is expressed together with the G protein subunits Galphai3 and Ggamma5 and either Gβ3 or Gbeta3-s in the Sf9 system.

[6] = system: G protein alpha subunits; test: 35S-GTPgammaS binding to permeabilized Sf9 cells (Galphai2, Ggamma12, m2 receptor) after carbachol; format: cell-based, human; conditions: carbachol 100 microM, versus no beta subunit, FIG. 15
Text: First of all, it was studied whether G protein heterotrimers which contain Gβ3s-2 are functionally active. As described earlier, the Sf9 insect cell system was used for this purpose (Siffert, W., Rosskopf, D., Siffert, G., Busch, S., Moritz, A., Erbel, R., Sharma, A. M., Ritz, E.; Wichmann, H. E., Jakobs, K. H., and Horsthemke, B. Association of a human G protein β3 subunit variant with hypertension. Nat. Genet. 18(1): 45-48, 1998). The cells were transfected with Galphai2, Ggamma12 and the m2-muscarinergic acetylcholine receptor. The bonding of 35S-GTPgammaS to permeabilized cells was quantified after stimulation with carbachol (100 microM). Here the specific incorporation of 35S-GTPgammaS is a measure of the activation of G protein alpha subunits. […] Thus it is shown at the same time that Gβ3s-2 in spite of the deletion of one propeller blade is functionally active and even leads to intensified activation of G proteins. […] Galphai2, Galphai3, G-1, and G-2 are not mutated. Circ. Res. 79:974-983, 1996. Siffert, W., Rosskopf, D., Moritz, A., Wieland, T., Kaldenberg-Stasch, S., Kettler, N., Hartung, K., Bechmann, S., and Jakobs, K. H. Enhanced G protein activation in immortalized lymphoblasts from patients with essential hypertension. J. Clin. Invest. 96:759-766, 1995. Wirchow, S., Ansorge, N., Ruebben, H., Wiffert, G., and Siffert, W. Enhanced fMLP-stimulated chemotaxis in human neutrophils from individuals carrying out the G protein beta3 subunit 825T-allele. FEBS Lett. 436(2): 155-158, 1998).

[7] = system: phospholipase Cβ3 (PLCbeta3); test: Inositol phosphate formation in COS-7 cells transfected with PLCβ3, Ggamma12 and Gβ subunits; format: cell-based; conditions: betagamma dimers with Ggamma12, FIG. 16
Text: It is generally known that betagamma subunits of heterotrimeric G proteins can stimulate different isoforms of the phospholipase Cbeta. This enzyme splits phospholipids, for example phosphatdylinositol-4,5-bisphosphate into the “second messenger” molecules inositol-1,4,5 triphosphate (IP3) and 1,2-diacylglycerol (DAG), IP3 causes release of calcium ions from intracellular reservoirs, while DAG activates different isoforms of the protein kinase C. Activation of phospholipase C is thus an important step in cell activation. It was examined whether betagamma subunits which contain Gβ3s-2 can activate the phospholipase Cβ3 (PLCbeta3). To do this the COS-7 cell system was used which is often used in the generally accessible literature for transient transfection of proteins. These cells were transfected with the PLCβ3, Ggamma12 and different Gβ subunits. The cells were pretreated with radioactively tagged [3H] inositol. The formation of inositol phosphates (IP) was quantified using standard methods, the amount of the 1P formed constituting a measure of the activation of the PLC. As is shown in FIG. 16, betagamma dimers which contain Gβ3, Gβ3s, or Gβ3s-2 can activate PLCβ33. Likewise, activation of PLCβ3 after transfection of Gβ1 is shown for comparison.

[8] = system: G protein alpha-subunits; test: [35S]GTPgammaS incorporation after Mas-7 stimulation, COS-7 transfection system; format: cell-based, human; conditions: COS-7 cells, FIG. 1
Text: The subject matter of this invention is based on the finding that the Gβ3s subunit leads to increased activation capacity of G proteins. The increased activation capacity of G proteins was detected via transfection of the corresponding cDNAs and the expression of Gβ3 and Gβ3s in the COS-7 transfection system which is well known to one skilled in the art. […] To quantify the activation capacity of G proteins, here the incorporation of radioactively tagged [35S]GTPgammaS into G protein alpha-subunits after stimulation with the peptide mastoparan-7 (Mas-7) was measured.

fMLP
chemotaxis [1]: increased chemotaxis

CCCCC[C@H](O)/C=C/[C@H]1[C@H](O)CC(=O)[C@@H]1CCCCCCC(=O)O [prostaglandin E1]
males with insufficient or absent erection ([2]; genotype CC): 34
males with sufficient erection (scores 4 and 5) ([2]; genotype CC): 16
males with insufficient or absent erection ([2]; genotype TC): 16
males with sufficient erection (scores 4 and 5) ([2]; genotype TC): 15
males with insufficient or absent erection ([2]; genotype TT): 3
males with sufficient erection (scores 4 and 5) ([2]; genotype TT): 3
increase of the arterial blood flow (doppler sonography) ([2]; after injection, homozygotic C825 allele carriers): reduced increase of the arterial blood flow

CC(C)NCC(O)COc1cccc2ccccc12 (stereo not shown) [propanolol]
decrease of cardiac output ([3]; homozygotic C825 carriers): 3 mL
decrease of cardiac output ([3]; homozygotic and heterozygotic 828T (so in the source) allele carriers): 12 mL

CCN1CCc2nc(N)oc2CC1 [BHT 933]
reduction of coronary blood flow [4]: intensified reduction of coronary blood flow

C[N+](C)(C)CCOC(N)=O [carbachol]
potency and efficiency of the agonist for stimulation of G proteins [5]: increased potency and increased efficiency

B1: Gβ3s: alternative splice product of human GNB3 with loss of 41 amino acids (protein, listed as Homo sapiens)
chain: MGEMEQLRQEAEQLKKQIADARKACADVTLAELVSGLEVVGRVQMRTRRTLRGHLAKIYAMHWATDSKLLVSASQDGKLIVWDSYTTNKVHAIPLRSSWVMTCAYAPSGNFVACGGLDNMCSIYNLKSREGNVKVSRELSAHTGYLSCCRFLDDNNIVTSSGDTTCALWDIETGQQKTVFVGHTGDCMSLAVSPDFNLFISGACDASAKLWDVREGTCRQTFTGQESDINAICFFSLSGRLLFAGYDDFNCNVWDSMKSERVGILSGHDNRVSCLGVTADGMAVATGSWDSFLKIWN
G protein activation (specific 35S-GTPgammaS incorporation) [6]: more potent than Gβ3
activation of PLCβ3 (inositol phosphate formation) [7]: can activate
activation capacity of G proteins ([35S]GTPgammaS incorporation) [8]: clearly increased compared to Gβ3

B2: Gβ3s-2: new splice variant of the Gβ3 subunit of human G protein, deletion of 43 amino acids, SEQ ID NO:4 (protein, listed as Homo sapiens)
chain: B1 chain
G protein activation (specific 35S-GTPgammaS incorporation) [6]: strongest potentiation
activation of PLCβ3 (inositol phosphate formation) [7]: can activate

B3: Gβ3: Gβ3-subunit of the human G protein (protein, UniProt P16520 1-340, looked up)
Guanine nucleotide-binding …: MGEMEQLRQEAEQLKKQIADARKACADVTLAELVSGLEVVGRVQMRTRRTLRGHLAKIYAMHWATDSKLLVSASQDGKLIVWDSYTTNKVHAIPLRSSWVMTCAYAPSGNFVACGGLDNMCSIYNLKSREGNVKVSRELSAHTGYLSCCRFLDDNNIVTSSGDTTCALWDIETGQQKTVFVGHTGDCMSLAVSPDFNLFISGACDASAKLWDVREGTCRQTFTGHESDINAICFFPNGEAICTGSDDASCRLFDLRADQELICFSHESIICGITSVAFSLSGRLLFAGYDDFNCNVWDSMKSERVGILSGHDNRVSCLGVTADGMAVATGSWDSFLKIWN
G protein activation (specific 35S-GTPgammaS incorporation) [6]: clearly intensified
activation of PLCβ3 (inositol phosphate formation) [7]: can activate
